Measurements reported in ChEMBL document CHEMBL1201862, “PubChem BioAssay data set” (2004).
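Dose response: 5 concentrations. Exposure: 48 h. Format: 96-well plates. Endpoint: linear interpolation; highest concentration if not reached. GI50 marks 50% less growth.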 Active and inactive are the calls of the source. No stated cut-off is given here; in the data, active = GI50 up to about 1.1 µM and inactive = higher.

Tests used:
Assay in all cases: growth of human tumour cells (NCI), 48 h
NCI/ADR-RES = system: NCI/ADR-RES
CCRF-CEM = system: CCRF-CEM
DU-145 = system: DU-145
MDA-MB-231 = system: MDA-MB-231
EKVX = system: EKVX
KM-20L2 = system: KM-20L2
HOP-92 = system: HOP-92
IGROV-1 = system: IGROV-1
RPMI-8226 = system: RPMI-8226
HCT-116 = system: HCT-116
HOP-62 = system: HOP-62
SK-MEL-2 = system: SK-MEL-2
A498 = system: A498
SF-268 = system: SF-268
LOX IMVI = system: LOX IMVI
HT-29 = system: HT-29
MCF7 = system: MCF7
SK-MEL-28 = system: SK-MEL-28
PC-3 = system: PC-3
OVCAR-3 = system: OVCAR-3

Compound | GI50 (NCI/ADR-RES) | GI50 (CCRF-CEM) | GI50 (DU-145) | GI50 (MDA-MB-231) | GI50 (EKVX) | GI50 (KM-20L2) | GI50 (HOP-92) | GI50 (IGROV-1) | GI50 (RPMI-8226) | GI50 (HCT-116) | GI50 (HOP-62) | GI50 (SK-MEL-2) | GI50 (A498) | GI50 (SF-268) | GI50 (LOX IMVI) | GI50 (HT-29) | GI50 (MCF7) | GI50 (SK-MEL-28) | GI50 (PC-3) | GI50 (OVCAR-3)
COC(=O)C12OCC34C(CC5C(C)=C(O)C(=O)CC5(C)C3C(O)C1O)OC(=O)C(OC(=O)C=C(C)C)C24 (stereo unspecified) | > 500 µM (inactive) | 307 µM (inactive) | 0.318 µM (active) | 0.0234 µM (active) | > 469 µM (inactive) | > 500 µM (inactive) | 234 µM (inactive) | 330 µM (inactive) | 361 µM (inactive) | > 489 µM (inactive) | > 500 µM (inactive) | > 500 µM (inactive) | > 500 µM (inactive) | > 500 µM (inactive) | 283 µM (inactive) | > 500 µM (inactive) | 256 µM (inactive) | 423 µM (inactive) | 0.23 µM (active) | 
COC(=O)[C@]12CC=C3O[C@@H]4OC5(CCCCC5)O[C@@H]4C3[C@@H]1C(=O)CCC2=O (stereo partly specified) |  | > 100 µM (inactive) |  |  | > 100 µM (inactive) | > 100 µM (inactive) | > 100 µM (inactive) | > 100 µM (inactive) | > 100 µM (inactive) | > 100 µM (inactive) | > 100 µM (inactive) | > 100 µM (inactive) | > 100 µM (inactive) | > 100 µM (inactive) | > 100 µM (inactive) | > 100 µM (inactive) |  | > 100 µM (inactive) |  | 36.5 µM (inactive)
CCCCCCCCCCCCCCCC(=O)OCC(C[As](=O)(O)O)OC(=O)CCCCCCCCCCCCCCC (stereo unspecified) | > 100 µM (inactive) | > 100 µM (inactive) |  | > 100 µM (inactive) | > 100 µM (inactive) | > 100 µM (inactive) | > 72.6 µM (inactive) | > 100 µM (inactive) | > 100 µM (inactive) | > 100 µM (inactive) | > 70.3 µM (inactive) | > 100 µM (inactive) | > 100 µM (inactive) | 68.9 µM (inactive) | > 100 µM (inactive) | > 100 µM (inactive) | > 100 µM (inactive) | > 100 µM (inactive) | > 100 µM (inactive) | > 100 µM (inactive)
CC1(c2cccc(C3CCC4(C=CC3=O)OCCO4)c2)OCCO1 (stereo unspecified) | 14.5 µM (inactive) | 2.49 µM (inactive) | 17.9 µM (inactive) | 13.2 µM (inactive) | 19.6 µM (inactive) | 4.07 µM (inactive) | 5.81 µM (inactive) | 18.4 µM (inactive) | 4.76 µM (inactive) | 4.2 µM (inactive) | 31 µM (inactive) | 12.9 µM (inactive) | 16.9 µM (inactive) | 17.3 µM (inactive) | 11.8 µM (inactive) | 11.8 µM (inactive) | 11 µM (inactive) | 16 µM (inactive) | 17.2 µM (inactive) | 5.2 µM (inactive)
Cc1cc(/N=C2\C=C(Nc3cc(C)on3)C(=O)c3ccccc32)no1 | 69 µM (inactive) | > 100 µM (inactive) | 52.5 µM (inactive) | 12.9 µM (inactive) | > 66.2 µM (inactive) | 43.7 µM (inactive) | 19 µM (inactive) | 33.1 µM (inactive) | > 100 µM (inactive) | 53.7 µM (inactive) | > 61.1 µM (inactive) | 17.1 µM (inactive) | > 100 µM (inactive) | 36.9 µM (inactive) | 8.71 µM (inactive) | 49.7 µM (inactive) | 7.46 µM (inactive) | 60.5 µM (inactive) | > 100 µM (inactive) | > 100 µM (inactive)
CC1OC(OC2CC(O)(C(=O)CO)Cc3c(O)c4c(c(O)c32)C(=O)c2ccccc2C4=O)CC(N)C1O (stereo unspecified) |  | < 0.01 µM (active) | 0.0101 µM (active) | 0.431 µM (active) | 0.158 µM (active) | < 0.0117 µM (active) | < 0.0338 µM (active) | 0.12 µM (active) | < 0.01 µM (active) | < 0.01 µM (active) | < 0.01 µM (active) | 0.0387 µM (active) | < 0.01 µM (active) | < 0.0163 µM (active) | < 0.01 µM (active) | < 0.0135 µM (active) |  | 0.0573 µM (active) | 0.0301 µM (active) | 0.106 µM (active)
Cc1c(Cl)ccc2c1NC(=O)C2(O)CC(=O)c1ccc(Cl)cc1Cl (stereo unspecified) | > 50 µM (inactive) | 10.3 µM (inactive) | > 50 µM (inactive) | 30.5 µM (inactive) | > 46.5 µM (inactive) | > 50 µM (inactive) | 23.6 µM (inactive) | > 50 µM (inactive) | > 41 µM (inactive) | > 50 µM (inactive) | 19.2 µM (inactive) | > 50 µM (inactive) | 16.2 µM (inactive) | > 50 µM (inactive) | > 50 µM (inactive) | > 50 µM (inactive) | > 50 µM (inactive) | > 50 µM (inactive) | > 50 µM (inactive) | > 46.7 µM (inactive)
COc1ccc(/C=N/NS(=O)(=O)c2ccccc2)cc1 |  | > 100 µM (inactive) |  |  | > 100 µM (inactive) | > 100 µM (inactive) | > 100 µM (inactive) | > 100 µM (inactive) | > 100 µM (inactive) | > 100 µM (inactive) | > 100 µM (inactive) | > 100 µM (inactive) | > 100 µM (inactive) | > 100 µM (inactive) | > 100 µM (inactive) | > 100 µM (inactive) |  | > 100 µM (inactive) |  | > 100 µM (inactive)
